According to US20230135524A1, “ARYL HYDANTOIN HETEROCYCLES AND METHODS OF USE” (The United States of America,as represented by the …, priority 2020, published 2023):

Columns and labels:
[1] = Pharmacokinetics in non-tumor bearing BALB/C mice, IV and PO; format: in vivo; conditions: for AUClast—D / Cmax—D: dose-normalised; for AUC(0-t) / Cmax / Tmax / half-life: mouse, plasma
Protocol: FIG. 14A-B are graphs of time (hours) versus plasma concentration (ng/mL) for intravenous (IV) (FIG. 14A) and oral (PO) (FIG. 14B) administration of 15a and 15n over 12 hours. Error bars represent the standard deviation in ng/mL from three independent mice per time point.
Clearance, Cmax, half life, dose/AUC, and bioavailability were calculated by statistical analysis using PHOENIX™ WINNONLIN™ v7.0 (Certara, Princeton, N.J.). The results are shown in FIGS. 14A and 14B and Table 4.

[2] = system: LAMP cells; assay: RNA-seq / gene set enrichment and master TF expression in LAMP cells; format: cell-based
Protocol: FIG. 16A-B are a Gene Set Enrichment Analysis for AR gene pathways (FIG. 16A) and MYC gene pathways (FIG. 16B) in LAMP cells (LNCaP cells engineered with CRISPR to have amplification of the AR enhancer) treated with either 15n or dimethylsulfoxide (DMSO) for 48 hours, followed by RNA-seq.
FIG. 16A-B are Gene Set Enrichment Analyses for AR gene pathways (FIG. 16A) and MYC gene pathways ([…]) in LAMP cells (LNCaP cells engineered with CRISPR (clustered regularly interspaced short palindromic repeats) to have amplification of the AR enhancer) treated with either 15n or DMSO for 48 hours, followed by RNA-seq.
(§1) This AR dominated cluster 1 is often driven by amplification of the distal AR enhancer (Takeda et al., Cell, 2018, 174(2), 422-432).

[3] = system: LAMP cells; assay: Growth reduction kinetics in LAMP cells; format: cell-based; conditions: 15 μM and 30 μM, FIG. 20
Text: as §1

[4] = system: LAPC4 prostate cancer cells; assay: LAPC4 mouse xenograft tumor volume; format: in vivo, Mice; conditions: oral gavage, LAPC4 mouse xenografts, day 17, FIG. 22
Protocol: FIG. 22 is a graph of tumor volume on day 17 as a percent change from the baseline.
Treatment was given once for 5 days followed by 2 days of rest. Tumor size was monitored by caliper twice weekly. Change from baseline tumor volume was calculated and reported as a waterfall plot. The in vivo activity is shown in FIG. 14, as measured by the percent change from the baseline.

[5] = system: LuCaP 167; assay: LuCaP 167 prostate cancer PDX tumor growth; format: in vivo, NSG male mice; conditions: 10 mg/kg oral gavage, 5 days on 2 days off, LuCaP 167 PDX, FIG. 23
Protocol: LuCaP 167 is a well-characterized androgen sensitive prostate cancer (PCa) PDX model established at the University of Washington and has been validated using short tandem repeat (STR) analysis. All preclinical in vivo experiments were performed in accordance with NCI Animal Care and Use Committee approved protocol. Six-week-old NSGmale mice were housed in a sterile, pathogen-free facility and maintained in a temperature-controlled room under a 12-hour light/dark schedule with water and food ad libitum. All mice were operated under sedation with oxygen and isoflurane. Ibuprofen and/or buprenorphine was administered post-surgery. LuCaP 167 was implanted subcutaneously under the left flank of intact mice. When tumors reached an average volume of ˜500 mm^3, mice were randomized and placed in either control group or treatment groups (n=10/group). […] Tumor burden was assessed twice per week by caliper measurement of two diameters of the tumor (L×W=mm^2) and reported as tumor volume ((L×W^2)/2=mm^3). Body weights were assessed using a weighing scale and recorded in grams. At the end-of-treatment (EOT) timepoint, tumor tissues were excised, weighed, and snap frozen for further analysis.

SMILES: CC1(C)C(=O)N(c2cnc(C#N)c(C(F)(F)F)c2)C(=S)N1Cc1ccc(-c2c[nH]nn2)cc1 [Compound 15n]
- AUClast—D ([1]; IV, 1 mg/kg): 6255.85 kg·ng·h/mL/mg
- Cmax—D ([1]; IV, 1 mg/kg): 936.94 kg·ng/mL/mg
- AUClast—D ([1]; PO, 20 mg/kg): 4866.48 kg·ng·h/mL/mg
- Cmax—D ([1]; PO, 20 mg/kg): 549.09 kg·ng/mL/mg
- AUC(0-t) ([1]; IV, 1 mg/kg): 6260 ng·h/mL
- Cmax ([1]; IV, 1 mg/kg): 937 ng/mL
- Tmax ([1]; IV, 1 mg/kg): 0.5 h
- half-life ([1]; IV, 1 mg/kg): 9.13 h
- AUC(0-t) ([1]; PO, 20 mg/kg): 97300 ng·h/mL
- Cmax ([1]; PO, 20 mg/kg): 11000 ng/mL
- Tmax ([1]; PO, 20 mg/kg): 1 h
- half-life ([1]; PO, 20 mg/kg): 22.3 h
- ATF4 expression ([2]; 48 hours, FIG. 19): greatly reduced
- AR target gene set (Gene Set Enrichment Analysis) ([2]; 48 hours, versus DMSO, RNA-seq): down regulated
- MYC target gene set (Gene Set Enrichment Analysis) ([2]; 48 hours, versus DMSO, RNA-seq): down regulated
- ATF4 driven amino-acid tRNA synthesis pathway ([2]; compared with enzalutamide): able to also downregulate
- cell killing compared with enzalutamide [3]: superior cell killing at lower doses than enzalutamide
- tumor burden (percent change from baseline tumor volume) [4]: retained its ability to reduce tumor burden
- anti-tumor effect (average tumor growth rate) [5]: superior anti-tumor effect over enzalutamide
